How the values were obtained:
AKT1 = AKT1 (Homo sapiens, UniProt P31749); assay: Panel of 450 kinases; assay type: biochemical
Nav1.5 = Nav1.5 (Homo sapiens, UniProt Q14524); assay: Cardiac ion channel profile; assay type: cell-based
AKT = AKT inhibition in primary lung endothelial cells with normal Eng expression (western blot); assay type: cell-based; conditions: Mus musculus, Endothelial cell; lung ECs from controls with normal level of Eng expression; VEGF-A stimulation
Method: Lungs from Engflox/flox pups were surgically removed, rinsed in ice-cold DMEM and endothelial cells were isolated as described in Galaris et al., (2021) “In vitro Three-Dimensional Sprouting Assay of Angiogenesis using Mouse Embryonic Stem Cells for Vascular Disease Modeling and Drug Testing” J Vis Exp (171). In summary, tissues were minced by the use of scissors, digested in DMEM-3 mg·ml-1 Collagenase A (10103586001, Roche) for 15 min at 37° C. and then filtered through a 70-μm strainer. The cell suspension was centrifuged at 200 g for 5 min and CD45+ cells were removed using Dynabeads sheep anti-Rat IgG (11035, Invitrogen) coated with rat anti-mouse CD45 antibody (550539, BD Pharmigen). Endothelial cells were sorted using Dynabeads sheep anti-Rat IgG (11035, Invitrogen) coated with rat anti-mouse PECAM1 antibody (550274, BD Pharmigen) according to the manufacturer's instructions. After washing 5 times with DMEM-0.1% BSA, cells were seeded in 6 well plates. Lung and liver ECs were maintained for two-three passages in Endothelial Cell Growth Medium 2 (C-22011, PromoCell) complemented with Fetal Calf Serum, Human Epidermal Growth Factors, Basic Fibroblast Growth Factor, Insulin like Growth Factor, Human Vascular Endothelial Growth Factor-165, Ascorbic acid, Heparin and Hydrocortisone (C-39211, SupplementPack EC GM2, PromoCell). […]

ADRA2A = target: T1, ADRA2A (Homo sapiens, UniProt P08913); assay: Millipore Drug Discovery Safety and Liability Panel; assay type: cell-based
T1 construct: purchased Millipore

AT1 = target: T2, AT1 (Homo sapiens, UniProt P30556); assay: as above; assay type: cell-based
T2 construct: purchased Millipore

CB1 = target: T3, CB1 (Homo sapiens, UniProt P21554); assay: as above; assay type: cell-based
T3 construct: purchased Millipore

CCR2B = target: T4, CCR2B (Homo sapiens, UniProt P41597); assay: as above; assay type: cell-based
T4 construct: purchased Millipore

CX3CR1 = target: T5, CX3CR1 (Homo sapiens, UniProt P49238); assay: as above; assay type: cell-based
T5 construct: purchased Millipore

D1 = target: T6, D1 (Homo sapiens, UniProt P21728); assay: as above; assay type: cell-based
T6 construct: purchased Millipore

M3 = target: T7, M3 (Homo sapiens, UniProt P20309); assay: as above; assay type: cell-based
T7 construct: purchased Millipore

MC5 = target: T8, MC5 (Homo sapiens, UniProt P33032); assay: as above; assay type: cell-based
T8 construct: purchased Millipore

PAC1 = target: T9, PAC1 (Homo sapiens, UniProt P41586); assay: as above; assay type: cell-based
T9 construct: Millipore

PAF = target: T10, PAF (Homo sapiens, UniProt P25105); assay: as above; assay type: cell-based
T10 construct: Millipore

S1P3 = target: T11, S1P3 (Homo sapiens, UniProt Q99500); assay: as above; assay type: cell-based
T11 construct: Millipore

V2 = target: T12, V2 (Homo sapiens, UniProt P30518); assay: as above; assay type: cell-based
T12 construct: Millipore

[1] = read-out: ANTAGONIST mean % inhibition
[2] = read-out: AGONIST mean % increase in activity

T6 sequence (P21728 whole entry): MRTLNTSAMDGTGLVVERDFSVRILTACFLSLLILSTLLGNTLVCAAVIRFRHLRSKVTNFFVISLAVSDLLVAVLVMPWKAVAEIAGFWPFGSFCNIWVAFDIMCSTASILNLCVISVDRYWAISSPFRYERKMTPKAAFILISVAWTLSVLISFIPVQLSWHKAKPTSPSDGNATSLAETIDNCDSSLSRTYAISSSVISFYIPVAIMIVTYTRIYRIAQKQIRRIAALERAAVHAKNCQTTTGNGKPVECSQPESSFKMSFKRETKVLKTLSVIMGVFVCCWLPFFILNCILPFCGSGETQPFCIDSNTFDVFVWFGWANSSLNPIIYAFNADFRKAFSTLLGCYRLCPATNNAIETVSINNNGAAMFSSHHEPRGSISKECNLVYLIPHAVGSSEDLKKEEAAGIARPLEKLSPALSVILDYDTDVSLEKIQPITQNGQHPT
T12 sequence (P30518 whole entry): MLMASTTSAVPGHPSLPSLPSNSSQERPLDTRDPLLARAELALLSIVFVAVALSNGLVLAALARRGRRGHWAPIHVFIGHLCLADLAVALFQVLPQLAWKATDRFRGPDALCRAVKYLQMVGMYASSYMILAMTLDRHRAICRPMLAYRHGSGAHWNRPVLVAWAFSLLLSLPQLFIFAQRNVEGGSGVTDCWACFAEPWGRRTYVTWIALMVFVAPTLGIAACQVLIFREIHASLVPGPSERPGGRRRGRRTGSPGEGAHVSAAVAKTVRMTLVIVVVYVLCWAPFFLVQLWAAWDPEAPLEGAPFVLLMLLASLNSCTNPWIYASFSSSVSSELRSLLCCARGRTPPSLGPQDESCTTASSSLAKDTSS
T2 sequence (P30556 whole entry): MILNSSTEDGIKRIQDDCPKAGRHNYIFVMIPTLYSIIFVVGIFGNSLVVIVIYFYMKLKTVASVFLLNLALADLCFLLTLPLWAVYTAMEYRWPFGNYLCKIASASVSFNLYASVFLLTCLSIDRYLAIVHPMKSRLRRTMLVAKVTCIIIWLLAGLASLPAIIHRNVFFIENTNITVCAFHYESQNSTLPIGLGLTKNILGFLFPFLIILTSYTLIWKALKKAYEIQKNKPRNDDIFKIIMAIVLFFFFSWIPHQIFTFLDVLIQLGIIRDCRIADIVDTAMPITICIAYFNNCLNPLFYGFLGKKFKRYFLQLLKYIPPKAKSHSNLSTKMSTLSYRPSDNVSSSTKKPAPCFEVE
T10 sequence (P25105 whole entry): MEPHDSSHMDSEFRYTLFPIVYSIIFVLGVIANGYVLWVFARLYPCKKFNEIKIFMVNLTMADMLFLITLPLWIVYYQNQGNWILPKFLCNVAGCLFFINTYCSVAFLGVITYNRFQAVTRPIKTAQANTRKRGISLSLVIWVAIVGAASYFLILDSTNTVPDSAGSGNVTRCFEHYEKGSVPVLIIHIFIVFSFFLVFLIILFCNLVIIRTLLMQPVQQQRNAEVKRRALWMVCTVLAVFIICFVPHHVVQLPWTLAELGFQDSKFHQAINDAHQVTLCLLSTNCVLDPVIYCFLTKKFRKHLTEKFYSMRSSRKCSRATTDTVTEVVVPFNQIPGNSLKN
T5 sequence (P49238 whole entry): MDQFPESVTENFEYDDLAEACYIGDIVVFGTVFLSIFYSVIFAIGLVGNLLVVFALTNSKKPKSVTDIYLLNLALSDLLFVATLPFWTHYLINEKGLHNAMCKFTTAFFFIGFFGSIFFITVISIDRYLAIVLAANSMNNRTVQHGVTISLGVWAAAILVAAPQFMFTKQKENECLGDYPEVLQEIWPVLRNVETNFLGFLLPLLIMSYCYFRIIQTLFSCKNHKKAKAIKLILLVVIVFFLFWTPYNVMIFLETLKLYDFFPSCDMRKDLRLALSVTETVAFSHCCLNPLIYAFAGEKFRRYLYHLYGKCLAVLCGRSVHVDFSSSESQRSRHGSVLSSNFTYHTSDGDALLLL
T11 sequence (Q99500 whole entry, species assumed): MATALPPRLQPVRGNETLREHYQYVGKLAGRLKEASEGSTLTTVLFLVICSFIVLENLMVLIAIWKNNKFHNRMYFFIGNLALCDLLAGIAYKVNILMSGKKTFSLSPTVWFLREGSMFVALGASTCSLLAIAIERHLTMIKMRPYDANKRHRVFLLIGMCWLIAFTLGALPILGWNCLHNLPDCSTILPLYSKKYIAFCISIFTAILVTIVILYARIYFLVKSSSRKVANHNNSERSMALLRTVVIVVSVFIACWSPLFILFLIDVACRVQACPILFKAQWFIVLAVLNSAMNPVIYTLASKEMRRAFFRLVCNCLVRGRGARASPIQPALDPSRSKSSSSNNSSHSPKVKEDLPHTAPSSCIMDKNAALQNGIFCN
T1 sequence (P08913 whole entry): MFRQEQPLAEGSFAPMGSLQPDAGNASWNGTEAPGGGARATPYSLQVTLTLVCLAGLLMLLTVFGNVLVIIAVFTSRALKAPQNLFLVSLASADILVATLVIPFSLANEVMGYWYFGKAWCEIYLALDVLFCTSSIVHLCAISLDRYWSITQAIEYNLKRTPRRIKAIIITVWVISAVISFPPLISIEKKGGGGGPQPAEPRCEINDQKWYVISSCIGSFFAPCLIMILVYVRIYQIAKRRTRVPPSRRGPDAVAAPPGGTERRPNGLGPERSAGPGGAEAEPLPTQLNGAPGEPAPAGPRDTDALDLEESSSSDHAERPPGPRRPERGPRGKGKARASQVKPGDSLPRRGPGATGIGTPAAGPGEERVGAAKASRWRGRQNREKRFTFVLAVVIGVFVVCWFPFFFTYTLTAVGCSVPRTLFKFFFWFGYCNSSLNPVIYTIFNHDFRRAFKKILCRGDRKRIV
T8 sequence (P33032 whole entry): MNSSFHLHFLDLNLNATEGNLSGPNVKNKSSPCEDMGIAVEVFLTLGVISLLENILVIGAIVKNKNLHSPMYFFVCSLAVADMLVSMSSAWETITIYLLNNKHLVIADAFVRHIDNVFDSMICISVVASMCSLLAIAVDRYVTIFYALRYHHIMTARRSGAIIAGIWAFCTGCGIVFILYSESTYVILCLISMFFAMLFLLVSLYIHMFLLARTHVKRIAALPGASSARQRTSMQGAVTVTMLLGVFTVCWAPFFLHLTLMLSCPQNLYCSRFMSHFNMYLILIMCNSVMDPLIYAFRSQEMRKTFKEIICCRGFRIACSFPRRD
T4 sequence (P41597 1-360 isoform P41597-2): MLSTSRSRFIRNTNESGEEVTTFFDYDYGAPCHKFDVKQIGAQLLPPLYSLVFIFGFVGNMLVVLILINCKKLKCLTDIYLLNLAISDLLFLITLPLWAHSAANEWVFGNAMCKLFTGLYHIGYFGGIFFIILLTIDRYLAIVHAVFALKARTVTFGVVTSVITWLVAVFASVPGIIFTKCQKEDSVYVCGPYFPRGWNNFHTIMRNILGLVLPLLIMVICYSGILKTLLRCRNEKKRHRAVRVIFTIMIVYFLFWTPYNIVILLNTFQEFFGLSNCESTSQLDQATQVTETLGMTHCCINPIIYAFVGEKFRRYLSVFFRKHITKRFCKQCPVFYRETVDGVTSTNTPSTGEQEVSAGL
T9 sequence (P41586 21-468): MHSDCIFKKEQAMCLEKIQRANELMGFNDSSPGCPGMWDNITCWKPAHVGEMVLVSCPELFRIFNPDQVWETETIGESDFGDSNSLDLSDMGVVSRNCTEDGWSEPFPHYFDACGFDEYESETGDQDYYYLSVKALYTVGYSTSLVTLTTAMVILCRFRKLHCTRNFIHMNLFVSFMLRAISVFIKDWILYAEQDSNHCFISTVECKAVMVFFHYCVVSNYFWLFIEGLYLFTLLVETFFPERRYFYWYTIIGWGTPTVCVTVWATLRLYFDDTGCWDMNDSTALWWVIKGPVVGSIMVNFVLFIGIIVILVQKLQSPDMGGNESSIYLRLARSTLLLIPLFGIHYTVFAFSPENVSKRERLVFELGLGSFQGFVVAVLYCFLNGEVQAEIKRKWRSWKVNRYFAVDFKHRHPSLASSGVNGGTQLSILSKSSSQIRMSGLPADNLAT
T7 sequence (P20309 whole entry): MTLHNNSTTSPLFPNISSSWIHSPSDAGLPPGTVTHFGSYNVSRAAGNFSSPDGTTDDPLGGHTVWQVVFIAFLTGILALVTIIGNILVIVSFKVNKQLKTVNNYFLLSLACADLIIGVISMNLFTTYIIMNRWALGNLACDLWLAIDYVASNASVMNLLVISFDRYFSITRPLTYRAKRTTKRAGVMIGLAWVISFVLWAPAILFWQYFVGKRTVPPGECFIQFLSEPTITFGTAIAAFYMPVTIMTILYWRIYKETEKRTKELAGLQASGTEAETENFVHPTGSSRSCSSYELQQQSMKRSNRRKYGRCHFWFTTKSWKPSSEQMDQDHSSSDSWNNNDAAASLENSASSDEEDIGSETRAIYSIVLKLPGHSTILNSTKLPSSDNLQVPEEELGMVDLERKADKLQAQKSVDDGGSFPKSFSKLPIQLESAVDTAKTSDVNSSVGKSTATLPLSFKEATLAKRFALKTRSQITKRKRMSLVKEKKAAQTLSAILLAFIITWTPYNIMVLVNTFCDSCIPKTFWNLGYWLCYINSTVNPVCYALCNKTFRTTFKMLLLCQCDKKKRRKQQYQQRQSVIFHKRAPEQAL
T3 sequence (P21554 whole entry): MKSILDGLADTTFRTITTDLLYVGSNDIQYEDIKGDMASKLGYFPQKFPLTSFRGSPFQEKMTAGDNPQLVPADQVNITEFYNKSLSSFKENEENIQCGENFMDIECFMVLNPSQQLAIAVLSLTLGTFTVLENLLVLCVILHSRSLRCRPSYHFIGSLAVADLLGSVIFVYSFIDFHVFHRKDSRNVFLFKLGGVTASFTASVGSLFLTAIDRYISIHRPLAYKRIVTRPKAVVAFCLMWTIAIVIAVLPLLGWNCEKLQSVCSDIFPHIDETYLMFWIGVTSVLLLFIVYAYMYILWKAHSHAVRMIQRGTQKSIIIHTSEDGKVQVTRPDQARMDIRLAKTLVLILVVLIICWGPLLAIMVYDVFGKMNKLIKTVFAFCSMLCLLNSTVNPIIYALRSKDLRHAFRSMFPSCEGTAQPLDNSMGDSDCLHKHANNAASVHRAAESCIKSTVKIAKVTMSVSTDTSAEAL

Structure (SMILES): CCN1C(=O)COc2nc(-c3ccc(C4(N)CC(O)C4)cc3)c(-c3ccccc3)cc21.O=C(O)C(O)C(O)C(=O)O [VAD044, 6-(4-(1-amino-3-hydroxycyclobutyl)phenyl)-1-ethyl-7-phenyl-1H-pyrido[2,3-b][1,4]oxazin-2(3H)-one L-tartrate]
- inhibition at 10 µM (AKT1): 89%
- inhibition at 10 µM (Nav1.5): < 25%
- IC50 (AKT): 55 nM
- activation at 10 µM (ADRA2A; ADRA2A, 10 μM, read-out: AGONIST mean % increase in activity): -0.2%
- inhibition at 10 µM (ADRA2A; [1]): 11.8%
- activation at 10 µM (AT1; AT1, 10 μM, read-out: AGONIST mean % increase in activity): -0.1%
- inhibition at 10 µM (AT1; [1]): 5.4%
- activation at 10 µM (CB1; CB1, 10 μM, read-out: AGONIST mean % increase in activity): -0.5%
- inhibition at 10 µM (CB1; [1]): -4.1%
- activation at 10 µM (CCR2B; CCR2B, 10 μM, read-out: AGONIST mean % increase in activity): -0.1%
- inhibition at 10 µM (CCR2B; [1]): 9.1%
- AGONIST mean % increase in activity (CX3CR1; CX3CR1, 10 μM): 0%
- inhibition at 10 µM (CX3CR1; [1]): 0.6%
- activation at 10 µM (D1; D1, 10 μM, read-out: AGONIST mean % increase in activity): 1.5%
- inhibition at 10 µM (D1; [1]): 18.7%
- activation at 10 µM (M3; M3, 10 μM, read-out: AGONIST mean % increase in activity): -0.5%
- inhibition at 10 µM (M3; [1]): 5.3%
- activation at 10 µM (MC5; MC5, 10 μM, read-out: AGONIST mean % increase in activity): -0.2%
- inhibition at 10 µM (MC5; [1]): 8.4%
- activation at 10 µM (PAC1; PAC1, 10 μM, read-out: AGONIST mean % increase in activity): -0.6%
- inhibition at 10 µM (PAC1; [1]): 1.1%
- activation at 10 µM (PAF; [2]): -0.9%
- inhibition at 10 µM (PAF; [1]): 21%
- activation at 10 µM (S1P3; S1P3, 10 μM, read-out: AGONIST mean % increase in activity): -0.4%
- inhibition at 10 µM (S1P3; [1]): -0.6%
- activation at 10 µM (V2; [2]): -1.5%
- inhibition at 10 µM (V2; [1]): 22.8%

From US12466839B2, “Allosteric AKT inhibitors for use in the treatment of Hereditary Hemorrhagic Telangiectasia” (VADERIS THERAPEUTICS AG, priority 2020, dated 2025)
